According to patent US6835747B1, “Ft-0554a substances and process for the preparation thereof” (The Kitasato Institute, priority 2003, dated 2004):
“Also recorded” adds a separate entry of the source.

How the values were obtained:
NADH-fumarate reductase = NADH-fumarate reductase (Ascaris suum, UniProt P24875); assay: NADH-fumarate reductase inhibitory activity, Ascaris suum mitochondrial fraction, NADH absorption at 340 nm; assay type: biochemical
Method: NADH-fumarate reductase inhibitory activity of FT-0554A substance of the present invention is explained as follows.
Muscles of Ascaris suum were homogenized in 120 mM sodium phosphate solution (pH 7.0) and centrifuged at 3000×g for 10 minutes to collect the supernatant solution. The supernatant was further centrifuged at 10000×g for 20 minutes to collect the precipitate. The precipitate was suspended in 120 mM sodium phosphate solution (pH 7.0) to obtain mitochondorial fraction.
After 10 μl of test sample dissolved in 50% dimethyl sulfoxide solution was added into 96 wells microplate, 80 μl of 120 mM sodium phosphate solution (pH 7.0) containing 0.35 mM NADH, 7.2 mM disodium fumarate and 18 mg/ml bovine serum albumin was added thereto, and pre-incubated in the microplate reader ELX808 (Bio-Teck Industries Co.) at 37° C. for 5 minutes. Mithochondrial fraction of Ascaris suum 10 μl (protein content 0.3 mg) was added therein and incubated at 37° C. for 10 minutes. Absorption of NADH at 340 nm was measured every 15 seconds.
As a result of quantitative measurement of NADH-fumarate reductase activity shown by decrease in the slope of absorbancy at 340 nm, 50% inhibition of NADH-fumarate reductase activity were obtained at 0.4 μM of FT-0554A substance. Consequently, FT-0554A substance can be expected to use as drug for treatment or prevention of helminthiasis.

Solubility in solvent = assay type: physicochemical

Row | Compound | NADH-fumarate reductase inhibitory activity (in words) (NADH-fumarate reductase) | Solubility in solvent (Solubility in solvent; chloroform and ethyl acetate) | Solubility in solvent (Solubility in solvent; water and n-hexane)
1 | CCC(C)/C=C/C=C(\C)CC(C)/C=C/C=C/C(O)C1(C)C=C(O)C(=O)O1 (stereo not shown) [FT-0554A substance] | equivalent level of inhibitory activity | soluble | insoluble; also recorded: hardly soluble
2 | CCC(C)/C=C/C=C(\C)CC(C)/C=C/C=C/C1OC(=O)C(O)C2OC12C (stereo not shown) [FT-0554 substance, reference compound] | had NADH-fumarate reductase inhibitory activity | – | –
